Our source for the Binding and EC50 values is ChEMBL document CHEMBL1149141, “Crystal structures of the vitamin D nuclear receptor liganded with the vitamin D side chain analogues calcipotriol and seocalcitol, receptor agonists of clinical importance. Insights into a structural basis for the switching of calcipotriol to a receptor antagonist by further side chain …” (J Med Chem, 2004).

Test [1] has as its target T1, Vitamin D3 receptor (Homo sapiens) (UniProt P11473).
T1 sequence (whole entry): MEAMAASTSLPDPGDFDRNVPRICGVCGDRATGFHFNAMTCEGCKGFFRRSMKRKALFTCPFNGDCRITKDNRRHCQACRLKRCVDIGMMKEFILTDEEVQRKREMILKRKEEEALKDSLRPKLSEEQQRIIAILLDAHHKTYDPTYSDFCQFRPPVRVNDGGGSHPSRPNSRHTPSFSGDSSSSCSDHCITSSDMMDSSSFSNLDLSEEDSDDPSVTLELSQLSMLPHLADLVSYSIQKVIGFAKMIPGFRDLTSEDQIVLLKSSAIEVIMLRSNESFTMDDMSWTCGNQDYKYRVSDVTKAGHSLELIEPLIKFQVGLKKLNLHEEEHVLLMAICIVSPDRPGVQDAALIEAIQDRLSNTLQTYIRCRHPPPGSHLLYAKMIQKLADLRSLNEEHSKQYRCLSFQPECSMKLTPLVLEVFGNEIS
Kind of test: Binding of compound towards human Vitamin D3 receptor was determined in vitro.

In a further test the target is T2, Vitamin D3 receptor (Homo sapiens, UniProt P11473).
T2 sequence (P11473 whole entry): T1 sequence (whole entry)
Kind of test: Effective concentration required for inhibition of Vitamin D3 receptor.

By EC50 is commonly meant the midpoint of the concentration-response curve. High values mean lower potency in that assay, low ones higher potency in that assay.

The structures appear in SMILES notation.

In test [1], `C=C1/C(=C\C=C2/CCC[C@]3(C)[C@@H]([C@H](C)/C=C/C=C/C(O)(CC)CC)CC[C@@H]23)C[C@@H](O)C[C@@H]1O` gave a Binding of 80%.
`C=C1/C(=C\C=C2/CCC[C@]3(C)[C@@H]([C@H](C)/C=C/[C@@H](O)C4(/C=C/C(=O)OCC)CC4)CC[C@@H]23)C[C@@H](O)C[C@@H]1O` returned a 50% effective concentration (EC50) on Vitamin D3 receptor of 0.35 nM.
`C=C1/C(=C\C=C2/CCC[C@]3(C)[C@@H]([C@H](C)/C=C/[C@@H](O)C4(C(=O)OCCCC)CC4)CC[C@@H]23)C[C@@H](O)C[C@@H]1O` came in with an EC50 on Vitamin D3 receptor of 0.4 nM.
With `C=C1/C(=C\C=C2/CCC[C@]3(C)[C@@H]([C@H](C)/C=C/[C@@H](O)C4CC4)CC[C@@H]23)C[C@@H](O)C[C@@H]1O`, the Binding in test [1] worked out at 90%.
